Where “and” joins values, the source holds several entries; their conditions need not be identical. Equal values may be shown once.
Settings: 101.33 kPa, Liquid, Hot wire method

CC(C)C(C)(C)C [2,2,3-trimethylbutane]
Settings | thermal conductivity [W/m/K] | thermal diffusivity [m2/s]
257.27 K | 0.1051 | –
257.53 K | 0.105 | –
257.81 K | 0.1049 | –
258.21 K | – | 7.28e-08
258.88 K | – | 7.27e-08
259.58 K | – | 7.26e-08
277.62 K | 0.1001 | –
277.9 K | 0.0999 | –
278.17 K | 0.0998 | –
278.57 K | – | 6.81e-08
279.26 K | – | 6.79e-08
279.93 K | – | 6.77e-08
296.29 K | 0.09516 | –
296.58 K | 0.09508 | –
296.87 K | 0.09497 | –
297.2 K | – | 6.29e-08
297.91 K | – | 6.32e-08
298.61 K | – | 6.3e-08
313.91 K | 0.09108 | –
314.21 K | 0.09098 | –
314.52 K | 0.09085 | –
314.85 K | – | 6e-08
315.57 K | – | 6e-08
316.3 K | – | 5.98e-08
331.18 K | 0.08718 | –
331.48 K | 0.08706 | –
331.79 K | 0.0869 | –
332.15 K | – | 5.72e-08
332.87 K | – | 5.7e-08
333.59 K | – | 5.66e-08

CC(C)CC(C)(C)C [2,2,4-trimethylpentane]
Settings | thermal conductivity [W/m/K] | thermal diffusivity [m2/s]
259.11 K | 0.1042 | –
259.32 K | 0.1041 | –
259.52 K | 0.104 | –
259.89 K | – | 7.3e-08
260.43 K | – | 7.32e-08
260.92 K | – | 7.33e-08
277.52 K | 0.09971 | –
277.74 K | 0.09966 | –
277.93 K | 0.09958 | –
278.29 K | – | 6.86e-08
278.84 K | – | 6.88e-08
279.31 K | – | 6.87e-08
295.67 K | 0.09516 | –
295.9 K | 0.09509 | –
296.1 K | 0.09502 | –
296.41 K | – | 6.37e-08
296.96 K | – | 6.41e-08
297.45 K | – | 6.42e-08
313.79 K | 0.09108 | –
314.02 K | 0.091 | –
314.22 K | 0.09093 | –
314.56 K | – | 6.07e-08
315.1 K | – | 6.07e-08
315.57 K | – | 6.07e-08
327.69 K | 0.08786 | –
327.93 K | 0.0878 | –
328.14 K | 0.08771 | –
328.47 K | – | 5.82e-08
329.04 K | – | 5.83e-08
329.52 K | – | 5.81e-08

CCC(C)(C)C [2,2-dimethylbutane]
Settings | thermal conductivity [W/m/K] | thermal diffusivity [m2/s]
257.48 K | 0.1055 | –
257.84 K | 0.1053 | –
258.3 K | 0.1051 | –
258.74 K | – | 7.54e-08
259.62 K | – | 7.49e-08
260.73 K | – | 7.46e-08
271.49 K | 0.1011 | –
271.84 K | 0.101 | –
272.32 K | 0.1008 | –
272.79 K | – | 7.16e-08
273.65 K | – | 7.14e-08
274.78 K | – | 7.08e-08
279.86 K | 0.09854 | –
280.24 K | 0.09842 | –
280.73 K | 0.09822 | –
281.17 K | – | 6.94e-08
282.06 K | – | 6.92e-08
283.23 K | – | 6.85e-08
297.98 K | 0.09321 | –
298.42 K | 0.09307 | –
298.91 K | 0.09289 | –
299.31 K | – | 6.48e-08
300.31 K | – | 6.46e-08
301.44 K | – | 6.41e-08
319.35 K | 0.08745 | –
319.75 K | 0.08729 | –
320.28 K | 0.08709 | –
320.72 K | – | 6.03e-08
321.62 K | – | 5.99e-08
322.83 K | – | 5.95e-08

CCCC(C)(C)C [2,2-dimethylpentane]
Settings | thermal conductivity [W/m/K] | thermal diffusivity [m2/s]
256.16 K | 0.1094 | –
256.52 K | 0.1091 | –
256.84 K | 0.109 | –
257.01 K | – | 7.66e-08
257.9 K | – | 7.58e-08
258.7 K | – | 7.56e-08
275.45 K | 0.1041 | –
275.83 K | 0.1039 | –
276.13 K | 0.1037 | –
276.31 K | – | 7.15e-08
277.21 K | – | 7.06e-08
277.95 K | – | 7.03e-08
296.32 K | 0.09819 | –
296.69 K | 0.09803 | –
297.02 K | 0.09794 | –
297.15 K | – | 6.57e-08
298.03 K | – | 6.53e-08
298.82 K | – | 6.49e-08
317.22 K | 0.09288 | –
317.63 K | 0.09264 | –
317.95 K | 0.09251 | –
318.05 K | – | 6.1e-08
318.98 K | – | 6.05e-08
319.72 K | – | 6.03e-08
336.91 K | 0.08793 | –
337.31 K | 0.08776 | –
337.64 K | 0.0876 | –
337.72 K | – | 5.67e-08
338.63 K | – | 5.61e-08
339.39 K | – | 5.59e-08

CC(C)C(C)C(C)C [2,3,4-trimethylpentane]
Settings | thermal conductivity [W/m/K] | thermal diffusivity [m2/s]
259.06 K | 0.1127 | –
259.29 K | 0.1126 | –
259.54 K | 0.1125 | –
259.87 K | – | 7.32e-08
260.45 K | – | 7.32e-08
261.06 K | – | 7.31e-08
277.95 K | 0.1083 | –
278.19 K | 0.1082 | –
278.44 K | 0.108 | –
278.74 K | – | 6.91e-08
279.35 K | – | 6.9e-08
279.93 K | – | 6.87e-08
297.33 K | 0.1036 | –
297.58 K | 0.1035 | –
297.84 K | 0.1033 | –
298.16 K | – | 6.57e-08
298.78 K | – | 6.56e-08
299.4 K | – | 6.54e-08
315.53 K | 0.09948 | –
315.77 K | 0.09926 | –
316.03 K | 0.09916 | –
316.35 K | – | 6.19e-08
316.91 K | – | 6.12e-08
317.54 K | – | 6.12e-08
331.87 K | 0.0958 | –
332.13 K | 0.09569 | –
332.39 K | 0.09551 | –
332.69 K | – | 5.9e-08
333.32 K | – | 5.89e-08
333.91 K | – | 5.84e-08

CC(C)C(C)C [2,3-dimethylbutane]
Settings | thermal conductivity [W/m/K] | thermal diffusivity [m2/s]
256.81 K | 0.1128 | –
257.19 K | 0.1127 | –
257.69 K | 0.1125 | –
258.09 K | – | 7.87e-08
258.98 K | – | 7.85e-08
260.13 K | – | 7.79e-08
277.98 K | 0.1061 | –
278.38 K | 0.1059 | –
278.91 K | 0.1057 | –
279.29 K | – | 7.3e-08
280.19 K | – | 7.27e-08
281.39 K | – | 7.23e-08
297.63 K | 0.1 | –
298.06 K | 0.0999 | –
298.6 K | 0.09972 | –
298.95 K | – | 6.8e-08
299.9 K | – | 6.77e-08
301.09 K | – | 6.74e-08
318.11 K | 0.09429 | –
318.45 K | 0.09416 | –
319.06 K | 0.09398 | –
319.63 K | – | 6.39e-08
320.36 K | – | 6.35e-08
321.67 K | – | 6.31e-08
336.29 K | 0.08957 | –
336.65 K | 0.08944 | –
337.3 K | 0.08925 | –
337.85 K | – | 6.04e-08
338.62 K | – | 6.01e-08
339.96 K | – | 5.97e-08

CCC(C)C(C)C (stereo unspecified) [2,3-dimethylpentane]
Settings | thermal conductivity | thermal diffusivity
256.3 K | 0.1178 W/m/K | –
256.7 K | 0.1175 W/m/K | –
256.93 K | – | 8.19e-08 m2/s
256.95 K | 0.1173 W/m/K | –
257.7 K | – | 8.09e-08 m2/s
258.3 K | – | 8.05e-08 m2/s
269.57 K | 0.114 W/m/K | –
269.87 K | 0.1137 W/m/K | –
270.12 K | 0.1135 W/m/K | –
270.24 K | – | 7.8e-08 m2/s
270.9 K | – | 7.79e-08 m2/s
271.49 K | – | 7.72e-08 m2/s
284.74 K | 0.1097 W/m/K | –
285.02 K | 0.1093 W/m/K | –
285.27 K | 0.1092 W/m/K | –
285.38 K | – | 7.51e-08 m2/s
286.04 K | – | 7.37e-08 m2/s
286.63 K | – | 7.35e-08 m2/s
296.31 K | 0.1057 W/m/K | –
296.36 K | 0.1063 W/m/K | –
296.65 K | 0.106 W/m/K | –
297 K | – | 7.16e-08 m2/s
297.68 K | – | 7.1e-08 m2/s
298.28 K | – | 7.02e-08 m2/s
311.34 K | 0.1022 W/m/K | –
311.66 K | 0.102 W/m/K | –
311.93 K | 0.1018 W/m/K | –
311.97 K | – | 6.79e-08 m2/s
312.7 K | – | 6.77e-08 m2/s
313.33 K | – | 6.76e-08 m2/s
321.3 K | 0.09959 W/m/K | –
321.59 K | 0.09937 W/m/K | –
321.85 K | 0.09916 W/m/K | –
321.91 K | – | 6.53e-08 m2/s
322.58 K | – | 6.46e-08 m2/s
323.18 K | – | 6.43e-08 m2/s
331.96 K | 0.097 W/m/K | –
332.21 K | 0.09651 W/m/K and 0.09662 W/m/K | –
332.5 K | – | 6.07e-08 m2/s
333.06 K | – | 5.99e-08 m2/s and 6e-08 m2/s
343.12 K | 0.09411 W/m/K | –
343.36 K | 0.09373 W/m/K | –
343.59 K | 0.09353 W/m/K | –
343.64 K | – | 5.78e-08 m2/s
344.2 K | – | 5.72e-08 m2/s
344.73 K | – | 5.72e-08 m2/s

— the NIST ThermoML archive (doi:10.1021/je020125e)
